{
  "source": "patent US20170315126A1",
  "about": "“METHOD FOR SCREENING COMPOUND SPECIFICALLY SUPPRESSING FORMATION OF CAVEOLAE OF CANCER CELLS, SCREENING KIT, VECTOR AND TRANSFORMANT TO BE USED IN KIT, AND METHOD FOR SELECTING PATIENT FOR WHOM MOLECULARLY TARGETED DRUG IS INDICATED” (NATIONAL UNIVERSITY CORPORATION NAGOYA INSTITUTE OF …, priority 2014, published 2017)",
  "assay_type_in_all_cases": "cell-based, human",
  "key": {"CAV1 and Cavin-1": {"system": "CAV1 and Cavin-1", "experiment": "IP-WB analysis of binding of endogenous CAV1 and Cavin-1 under ROR1 silencing", "conditions": "NCI-H1975 cell extract 24 hours after transfection", "experimental": "(§1) Western blotting analysis and IP-WB analysis were conducted by the standard methods using an Immobilon-P filter (manufactured by Millipore Corp.) and an enhanced chemiluminescence system (manufactured by GE Healthcare Inc.). pCMVpuro-Cavin-1-WT was coexpressed with various ROR1 expression constructs such as the wild type (WT), TKΔ473-564 (TKΔ1), TK564-655 (TKΔ2), TKΔ655-746 (TKΔ3), TKΔ473-655 (TKΔ1+×2), TKΔ564-746 (TKΔ2+Δ3), and TKΔ473-746 (TKA1+Δ2+A3) to identify the binding site of ROR1 and Cavin-1. pCMVpuro-CAV1-WT was coexpressed with ROR1 expression constructs such as the wild type (WT), TKΔ473-564 (TKΔ1), TKΔ564-655 (TKΔ2), TKΔ655-746 (TKΔ3), ST1Δ748-782 (ΔST1), PΔ784-851 (ΔP), and ST2Δ853 to 876 (ΔST2) to identify the binding site of ROR1 and CAV1. For these, the cells were recovered 24 hours after transfection by Fugene6 (Promega) using COS-7 cells, and IP-WB analysis was conducted.\nIn addition, IP-WB analysis was conducted after suspending the cells in lysis buffer containing octyl glucoside (10 mM Tris-HCl (pH 8.0), 0.15 M NaCl, 5 mM EDTA, 1% Triton X-100, 60 mM octyl glucoside) using NCI-H1975, NCI-H358, and SK-LU-1 cell lines, which are pulmonary adenocarcinoma cell lines, to confirm the binding of ROR1 and Cavin-1, ROR1 and CAV1, or Cavin-1 and IGF-IR."}, "CAV1 [1]": {"system": "CAV1", "experiment": "Western blotting of CAV1 expression after siRNA transfection in pulmonary adenocarcinoma cell lines", "experimental": "as §1\n(§2) Transfection of the siRNA (20 nM each) was conducted in accordance with the manufacturer's instruction manual using lipofectamine RNAiMAX (manufactured by Invitrogen). […] Cells were also recovered 120 hours after transfection for analysis by colorimetry to measure cell proliferation."}, "[2]": {"system": "caveolae of NCI-H1975 cells", "experiment": "Electron microscope analysis of caveolae by rapid freezing/freeze-fracture replica labeling", "conditions": "72 hours after transfection, n=18 regions", "experimental": "20 μm thick gold foil was placed in a culture dish, and NCI-H1975 cells, which are a pulmonary adenocarcinoma cell line, were cultured on top. Transfection of siControl or siROR1 was conducted. Rapid freezing was conducted using a high-pressure freezing machine (Leica Inc.) 72 hours after transfection. Freeze-fracture replicas were prepared using a BAF400 apparatus (Baltec Co.), and labeled by mouse anti-CAV2 antibody (BD Transduction Co.) after treatment by SDS. A second antibody reaction was then conducted using 10 nm gold colloid-conjugated goat anti-mouse IgG antibody (British Biocell International Co.), and the cells were examined by a JEM-1011 electron microscope. For caveolae distribution density measurement, randomly selected regions under the electron microscope (18 random cell membrane regions of 17-50 μm) were measured, and the cell membrane region of each electron micrograph was measured using ImageJ."}, "CAV1 [3]": {"system": "CAV1", "experiment": "Western blotting of CAV1 after siROR1 treatment in cells expressing ROR1 wild type or mutants with silent mutation", "conditions": "three days", "experimental": "In vitro mutagenesis was conducted using KOD-plus-DNA polymerase (Toyobo), and pCMVpuro-ROR1-WTm (siROR1) and pCMVpuro-ROR1-KDm (siROR1) including silent mutations for siROR1 were prepared. Following primer of not involving amino acid substitution was used for production.\nWild type ROR1 (ROR1-WT), wild type ROR1 with an added silent mutation for siROR1 (ROR1-WTm), or kinase activity-deficient ROR1 with a silent mutation for siROR1 added (ROR1-KDm) were transfected into NCI-H1975 cells. Selection by puromycin (1.5 μg/mL) was performed after 24 hours, and the single clones were collected, and stable clones that expressed the respective ROR1 (constitutive ROR1-expressing cell lines) were prepared. These stable clones were then treated by siControl or siROR1, and the cells were recovered after three days and Western blotting analysis was conducted.\nIn vitro mutagenesis was conducted using KOD-plus-DNA polymerase (Toyobo), and pCMVpuro-ROR1-WTm (siROR1) and pCMVpuro-ROR1-TKA2+TKA3m (siROR1) including silent mutations for siROR1 were prepared. Following primer of not involving amino acid substitution was used for production.\n(§3) Wild type ROR1 (ROR1-WT), wild type ROR1 with an added silent mutation for siROR1 (ROR1-WTm), or cavin-1 binding region-deficient ROR1 with an added silent mutation for siROR1 (ROR1-TKA2+TKA3m) were transfected into PC-9 cells. Selection by puromycin (1.0 μg/mL) was performed after 24 hours, and the cells were recovered as bulk clones and reseeded in 6-well plates. The cells were then treated by siControl or siROR1, recovered after three days, and Western blotting analysis was conducted.\nIn vitro mutagenesis was conducted using KOD-plus-DNA polymerase (Toyobo), and pCMVpuro-ROR1-WTm (siROR1) and pCMVpuro-ROR1-AS/T2m (siROR1) including silent mutations for siROR1 were prepared. Following primer of not involving amino acid substitution was used for production.\nas §3, with “CAV1” for “cavin-1”, “(ROR1-ΔS/T2m)” for “(ROR1-TKA2+TKA3m)”"}, "ROR1": {"system": "ROR1", "experiment": "Western blotting of changes over time in ROR1 expression after siROR1 transfection", "conditions": "NCI-H1975; 24 hours after transfection", "experimental": "as §1, §2"}},
  "data": [
    {"substance": "siROR1: RNA oligomer for RNAi against human ROR1, 5′-CAGCAAUGGAUGGAAUUUCAA-3′ (SEQ ID No: 13) (listed as RNA, further chemistry not given here)", "values": [
      {"measurement": "binding of endogenous CAV1 and Cavin-1 (IP-WB)", "setting": "CAV1 and Cavin-1", "value": "decreases the binding"},
      {"measurement": "CAV1 expression (Western blot)", "setting": "CAV1 [1]; NCI-H441, NCI-H358 and PC-9, siRNA 20 nM, 72 hours after transfection", "value": "downregulation of CAV1 was found"},
      {"measurement": "CAV1 expression (Western blot)", "setting": "CAV1 [1]; NCI-H1975, after 48 hours", "value": "downregulation of CAV1 was seen"},
      {"measurement": "number of normal caveolae in random regions on the cell membrane", "setting": "[2]", "value": "decreases significantly"},
      {"measurement": "CAV1 expression (Western blot)", "setting": "CAV1 [3]; NCI-H1975 stable clones expressing ROR1-KDm (kinase activity-deficient, silent mutation)", "value": "downregulation of CAV1 was not seen"},
      {"measurement": "CAV1 expression (Western blot)", "setting": "CAV1 [3]; NCI-H1975 stable clones expressing ROR1-WT", "value": "downregulation of CAV1"},
      {"measurement": "CAV1 expression (Western blot)", "setting": "CAV1 [3]; NCI-H1975 stable clones expressing ROR1-WTm (silent mutation against siROR1)", "value": "downregulation of CAV1 was not seen"},
      {"measurement": "CAV1 expression (Western blot)", "setting": "CAV1 [3]; PC-9 transfected with ROR1-AS/T2m (CAV1 binding region deleted, silent mutation)", "value": "expression of CAV1 was lowered"},
      {"measurement": "CAV1 expression (Western blot)", "setting": "CAV1 [3]; PC-9 transfected with ROR1-TKA2+TKA3m (cavin-1 binding region deleted, silent mutation)", "value": "expression of CAV1 was lowered"},
      {"measurement": "ROR1 expression (Western blot)", "setting": "ROR1", "value": "lowered the expression of ROR1"}
    ]}
  ]
}
